Measurements: PubChem BioAssay AID1259407 (Chemical Carcinogenesis Research Information System (CCRIS), 2018)
Calls of active or inactive are those of the source. The rule behind the calls is not given here.

System: CCRIS mutagenicity, Ames/micronucleus/aberration tests
Test: CCRIS mutagenicity studies
[1] = Test System: AMES SALMONELLA TYPHIMURIUM, Strain/Indicator: TA98, Metabolic Activation: NONE, Method: STANDARD PLATE
[2] = Test System: AMES SALMONELLA TYPHIMURIUM, Strain/Indicator: TA100, Metabolic Activation: NONE, Method: STANDARD PLATE
[3] = Test System: AMES SALMONELLA TYPHIMURIUM, Strain/Indicator: TA102, Metabolic Activation: NONE, Method: STANDARD PLATE
[4] = Test System: AMES SALMONELLA TYPHIMURIUM, Strain/Indicator: TA97A, Metabolic Activation: NONE, Method: STANDARD PLATE

With C/C=C1/C[C@@H](C)[C@](O)(CO)C(=O)OCC2=CCN3CC[C@@H](OC1=O)[C@@H]23 the mutagenic call (Test System: AMES SALMONELLA TYPHIMURIUM, Strain/Indicator: TA97A, Metabolic Activation: RAT, LIVER, S-9, SODIUM PHENOBARBITAL AND BETA-NAPHTHOFLAVONE, Method: PREINCUBATION) was “inactive; negative”, the mutagenic call (Test System: AMES SALMONELLA TYPHIMURIUM, Strain/Indicator: TA97A, Metabolic Activation: RAT, LIVER, S-9, SODIUM PHENOBARBITAL AND BETA-NAPHTHOFLAVONE, Method: STANDARD PLATE) was “inactive; negative” and the mutagenic call (Test System: AMES SALMONELLA TYPHIMURIUM, Strain/Indicator: TA98, Metabolic Activation: RAT, LIVER, S-9, SODIUM PHENOBARBITAL AND BETA-NAPHTHOFLAVONE, Method: PREINCUBATION) was “inactive; negative”. For the same compound, the mutagenic call (Test System: AMES SALMONELLA TYPHIMURIUM, Strain/Indicator: TA98, Metabolic Activation: RAT, LIVER, S-9, SODIUM PHENOBARBITAL AND BETA-NAPHTHOFLAVONE, Method: STANDARD PLATE) was “inactive; negative”, the mutagenic call (Test System: AMES SALMONELLA TYPHIMURIUM, Strain/Indicator: TA100, Metabolic Activation: RAT, LIVER, S-9, SODIUM PHENOBARBITAL AND BETA-NAPHTHOFLAVONE, Method: PREINCUBATION) was “inactive; negative” and the mutagenic call (Test System: AMES SALMONELLA TYPHIMURIUM, Strain/Indicator: TA100, Metabolic Activation: RAT, LIVER, S-9, SODIUM PHENOBARBITAL AND BETA-NAPHTHOFLAVONE, Method: STANDARD PLATE) was “inactive; negative”. For the same compound, the mutagenic call (Test System: AMES SALMONELLA TYPHIMURIUM, Strain/Indicator: TA1535, Metabolic Activation: RAT, LIVER, S-9, SODIUM PHENOBARBITAL AND BETA-NAPHTHOFLAVONE, Method: PREINCUBATION) was “inactive; negative”, the mutagenic call (Test System: AMES SALMONELLA TYPHIMURIUM, Strain/Indicator: TA1535, Metabolic Activation: RAT, LIVER, S-9, SODIUM PHENOBARBITAL AND BETA-NAPHTHOFLAVONE, Method: STANDARD PLATE) was “inactive; negative” and the mutagenic call (Test System: AMES SALMONELLA TYPHIMURIUM, Strain/Indicator: TA1538, Metabolic Activation: RAT, LIVER, S-9, SODIUM PHENOBARBITAL AND BETA-NAPHTHOFLAVONE, Method: PREINCUBATION) was “inactive; negative”. For the same compound, the mutagenic call (Test System: AMES SALMONELLA TYPHIMURIUM, Strain/Indicator: TA1538, Metabolic Activation: RAT, LIVER, S-9, SODIUM PHENOBARBITAL AND BETA-NAPHTHOFLAVONE, Method: STANDARD PLATE) was “inactive; negative”.
In the case of O=c1cc(-c2ccccc2)cc(-c2ccccc2)n1/N=C/c1ccc([N+](=O)[O-])o1, the mutagenic call (Test System: AMES SALMONELLA TYPHIMURIUM, Strain/Indicator: TA97, Metabolic Activation: NONE, Method: STANDARD PLATE) is reported as “inactive; negative”, the mutagenic call [1] is reported as “inactive; negative” and the mutagenic call [2] is reported as “active; positive”. The mutagenic call [3] was “inactive; negative”.
In the case of CC(C)CCC[C@@H](C)[C@H]1CC[C@H]2[C@@H]3CC4([C@H]5C[C@@H](Br)CC[C@]5(C)[C@H]3CC[C@]12C)S(=O)(=O)CCS4(=O)=O, the mutagenic call (Test System: AMES SALMONELLA TYPHIMURIUM, Strain/Indicator: TA97A, Metabolic Activation: NONE) is reported as “inactive; negative”, the mutagenic call (Test System: AMES SALMONELLA TYPHIMURIUM, Strain/Indicator: TA97A, Metabolic Activation: RAT, LIVER, S-9, AROCLOR 1254) is reported as “active; positive” and the mutagenic call (Test System: AMES SALMONELLA TYPHIMURIUM, Strain/Indicator: TA98, Metabolic Activation: NONE) is reported as “inactive; negative”. For the same compound, the mutagenic call (Test System: AMES SALMONELLA TYPHIMURIUM, Strain/Indicator: TA100, Metabolic Activation: NONE) was “inactive; negative”, the mutagenic call (Test System: AMES SALMONELLA TYPHIMURIUM, Strain/Indicator: TA100, Metabolic Activation: RAT, LIVER, S-9, AROCLOR 1254) was “inactive; negative” and the mutagenic call (Test System: AMES SALMONELLA TYPHIMURIUM, Strain/Indicator: TA102, Metabolic Activation: NONE) was “active; positive”. The mutagenic call (Test System: AMES SALMONELLA TYPHIMURIUM, Strain/Indicator: TA102, Metabolic Activation: RAT, LIVER, S-9, AROCLOR 1254) was “active; positive”, the mutagenic call (Test System: AMES SALMONELLA TYPHIMURIUM, Strain/Indicator: TA104, Metabolic Activation: NONE) was “active; positive” and the mutagenic call (Test System: AMES SALMONELLA TYPHIMURIUM, Strain/Indicator: TA104, Metabolic Activation: RAT, LIVER, S-9, AROCLOR 1254) was “active; positive”.
With COc1cc(NS(C)(=O)=O)ccc1Nc1c2ccccc2nc2cc(N=[N+]=[N-])ccc12 the mutagenic call (Test System: AMES SALMONELLA TYPHIMURIUM, Strain/Indicator: TA1537, Metabolic Activation: NONE, Method: STANDARD PLATE) was “active; positive”.
For O=[N+]([O-])c1ccc2c(c1)Cc1cc(O)ccc1-2, the mutagenic call (Test System: AMES SALMONELLA TYPHIMURIUM, Strain/Indicator: TA98, Metabolic Activation: NONE, Method: PREINCUBATION) was “active; positive” and the mutagenic call (Test System: AMES SALMONELLA TYPHIMURIUM, Strain/Indicator: TA98, Metabolic Activation: S-9, Method: PREINCUBATION) was “active; positive”.
In the case of C=C(C)C(=O)OCCOCCOCCOC(=O)C(=C)C, the mutagenic call [4] is reported as “inactive; negative”, the mutagenic call (Test System: AMES SALMONELLA TYPHIMURIUM, Strain/Indicator: TA97A, Metabolic Activation: RAT, LIVER, S-9, PHENOBARBITAL AND BETA-NAPHTHAFLAVONE, Method: STANDARD PLATE) is reported as “inactive; negative” and the mutagenic call [1] is reported as “inactive; negative”. For the same compound, the mutagenic call (Test System: AMES SALMONELLA TYPHIMURIUM, Strain/Indicator: TA98, Metabolic Activation: RAT, LIVER, S-9, PHENOBARBITAL AND BETA-NAPHTHAFLAVONE, Method: STANDARD PLATE) was “inactive; negative”, the mutagenic call [2] was “inactive; negative” and the mutagenic call (Test System: AMES SALMONELLA TYPHIMURIUM, Strain/Indicator: TA100, Metabolic Activation: RAT, LIVER, S-9, PHENOBARBITAL AND BETA-NAPHTHAFLAVONE, Method: STANDARD PLATE) was “inactive; negative”. For the same compound, the mutagenic call [3] was “inactive; negative”, the mutagenic call (Test System: AMES SALMONELLA TYPHIMURIUM, Strain/Indicator: TA102, Metabolic Activation: RAT, LIVER, S-9, PHENOBARBITAL AND BETA-NAPHTHAFLAVONE, Method: STANDARD PLATE) was “inactive; negative” and the mutagenic call (Test System: CHINESE HAMSTER V-79, Strain/Indicator: V-79 (HPRT)/6-THIOGUANINE, Metabolic Activation: NONE) was “active; positive”. The mutagenic call (Test System: CHINESE HAMSTER V-79, Strain/Indicator: V-79 (HPRT)/6-THIOGUANINE, Metabolic Activation: R, L, S-9, PHENOBARBITAL AND BETA-NAPHTHOFLAVONE) was “inactive; negative”.
In the case of BrCc1ccc(Br)cc1, the mutagenic call [4] is reported as “inactive; negative”, the mutagenic call (Test System: AMES SALMONELLA TYPHIMURIUM, Strain/Indicator: TA97A, Metabolic Activation: RAT LIVER S-9, PHENOBARBITAL, BETA-NAPHTHOFLAVONE, 3.5%, Method: STANDARD PLATE) is reported as “inactive; negative” and the mutagenic call [1] is reported as “inactive; negative”. The mutagenic call (Test System: AMES SALMONELLA TYPHIMURIUM, Strain/Indicator: TA98, Metabolic Activation: RAT LIVER S-9, PHENOBARBITAL, BETA-NAPHTHOFLAVONE, 3.5%, Method: STANDARD PLATE) was “inactive; negative”, the mutagenic call [2] was “inactive; negative” and the mutagenic call (Test System: AMES SALMONELLA TYPHIMURIUM, Strain/Indicator: TA100, Metabolic Activation: RAT LIVER S-9, PHENOBARBITAL, BETA-NAPHTHOFLAVONE, 3.5%, Method: STANDARD PLATE) was “inactive; negative”. For the same compound, the mutagenic call (Test System: AMES SALMONELLA TYPHIMURIUM, Strain/Indicator: TA1535, Metabolic Activation: NONE, Method: STANDARD PLATE) was “inactive; negative”, the mutagenic call (Test System: AMES SALMONELLA TYPHIMURIUM, Strain/Indicator: TA1535, Metabolic Activation: RAT LIVER S-9, PHENOBARBITAL, BETA-NAPHTHOFLAVONE, 3.5%, Method: STANDARD PLATE) was “inactive; negative” and the mutagenic call (Test System: ESCHERICHIA COLI, Strain/Indicator: WP2 UVR A, Metabolic Activation: NONE, Method: STANDARD PLATE) was “inactive; negative”. For the same compound, the mutagenic call (Test System: ESCHERICHIA COLI, Strain/Indicator: WP2 UVR A, Metabolic Activation: RAT LIVER S-9, PHENOBARBITAL, BETA-NAPHTHOFLAVONE, 3.5%, Method: STANDARD PLATE) was “inactive; negative”.
In the case of c1ccc2cc3c(cc2c1)c1cccc2ccc4cccc3c4c21, the mutagenic call (Test System: HUMAN H1A1V2 CELLS, Strain/Indicator: TK LOCUS, Metabolic Activation: NONE, Method: SUSPENSION/PLATE) is reported as “active; positive”.
